How the values were obtained:
M. tuberculosis H37Rv = assay type: cell-based
[1] = test system: drug susceptible and drug-resistant M. tuberculosis strains; assay type: cell-based

Compound | agar MIC (M. tuberculosis H37Rv) | fold increase of MIC of resistant mutant over WT H37Rv (M. tuberculosis H37Rv) | frequency of resistance (FOR) (M. tuberculosis H37Rv) | fold increase in MIC (M. tuberculosis H37Rv) | MICs (range over strains) [1]
O=C(O)CCCCCC1NC(=O)CS1 (racemic) [(±)-acidomycin, 6-(4-Oxothiazolidin-2-yl)hexanoic acid] | 12 µM | approximately 16 fold | less than or equal to 1 × 10^−8 | – | –
O=C(O)CCCCCC1NC(=O)CS1 (stereo not drawn) [acidomycin] | – | 16 fold | – | two- to three-fold | 0.096 to 6.2 µM

Reference: PMC6724193 (ACS infectious diseases, 2019)
